Assay results as given in ChEMBL document CHEMBL4359918, “Discovery of tissue selective liver X receptor agonists for the treatment of atherosclerosis without causing hepatic lipogenesis” (Eur J Med Chem, 2019).
One block for each compound: values may come before it. The source made the active and inactive calls. No cut-off for these calls is given here.

How the values were obtained:
[1] = test system: Mus musculus; experiment: Induction of hepatic steatosis in C57BL/6 mouse assessed as accumulation of serum triglyceride level at 50 mg/kg/day, ig administered for 7 days; assay type: organism-based; settings: in vivo, po, 168 h
[2] = test system: Mus musculus; experiment: Increase in hepatic triglyceride level in high fat diet-induced C57BL/6 mouse model of hypercholesterolemia at 20 mg/kg, po administered for 12 weeks; assay type: ADME, organism-based; settings: in vivo, 2016 h
[3] = Toxicity in high fat diet-induced C57BL/6 mouse model of hypercholesterolemia assessed as reduction in liver weight at 20 mg/kg, po administered for 12 weeks by H and E staining-based assay; assay type: organism-based; settings: in vivo, 2016 h
[4] = test system: Mus musculus; experiment: Induction of hepatic steatosis in C57BL/6 mouse assessed as accumulation of hepatic triglyceride level at 50 mg/kg/day, ig administered for 7 days; assay type: organism-based; settings: in vivo, po, 168 h
[5] = target: T1, LXRalpha (Oxysterols receptor LXR-alpha) (Homo sapiens, UniProt Q13133); experiment: Agonist activity at human LXRalpha transfected in HEK293T cells at 10 uM incubated for 20 hrs by luciferase reporter gene assay relative to control; assay type: cell-based; settings: HEK293T cells transfected with human LXRalpha, read-out: FC
T1 sequence (Q13133 whole entry): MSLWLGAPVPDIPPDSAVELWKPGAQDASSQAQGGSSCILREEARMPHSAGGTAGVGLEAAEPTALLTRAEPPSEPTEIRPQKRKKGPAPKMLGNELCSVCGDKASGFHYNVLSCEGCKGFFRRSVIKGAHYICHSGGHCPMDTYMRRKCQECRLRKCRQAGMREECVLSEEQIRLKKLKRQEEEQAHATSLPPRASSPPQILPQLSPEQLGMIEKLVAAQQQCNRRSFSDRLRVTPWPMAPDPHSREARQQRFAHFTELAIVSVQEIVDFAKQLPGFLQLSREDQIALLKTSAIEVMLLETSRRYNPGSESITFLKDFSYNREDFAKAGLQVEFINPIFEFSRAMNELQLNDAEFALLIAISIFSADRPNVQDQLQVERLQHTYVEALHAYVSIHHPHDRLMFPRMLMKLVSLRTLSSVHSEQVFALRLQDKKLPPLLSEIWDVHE

[6] = target: T2, Oxysterols receptor LXR-beta (Rattus norvegicus) (UniProt Q62755); experiment: Agonist activity at rat LXRbeta transfected in HEK293T cells at 10 uM incubated for 20 hrs by luciferase reporter gene assay relative to control; assay type: cell-based
T2 sequence (whole entry): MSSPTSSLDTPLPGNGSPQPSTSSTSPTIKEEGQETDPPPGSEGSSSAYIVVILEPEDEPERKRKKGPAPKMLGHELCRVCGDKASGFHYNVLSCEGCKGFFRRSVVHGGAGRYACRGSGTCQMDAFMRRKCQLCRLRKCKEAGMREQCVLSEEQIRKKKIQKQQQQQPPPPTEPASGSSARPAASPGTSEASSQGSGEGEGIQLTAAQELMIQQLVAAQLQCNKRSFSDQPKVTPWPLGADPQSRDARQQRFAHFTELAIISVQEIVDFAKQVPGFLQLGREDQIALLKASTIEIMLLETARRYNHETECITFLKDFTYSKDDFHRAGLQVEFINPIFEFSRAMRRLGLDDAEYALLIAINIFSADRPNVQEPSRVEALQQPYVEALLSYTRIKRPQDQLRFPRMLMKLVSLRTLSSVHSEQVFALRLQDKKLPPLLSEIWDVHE

[7] = target: T3, Oxysterols receptor LXR-alpha (Homo sapiens) (UniProt Q13133); experiment: Agonist activity at human LXRalpha transfected in HEK293T cells at 10 uM incubated for 20 hrs in presence of LXR antagonist SR9243 by luciferase reporter gene assay relative to control; assay type: cell-based
T3 sequence (whole entry): T1 sequence (Q13133 whole entry)

[8] = test system: HEK-293T; experiment: Cytotoxicity against HEK293T cells assessed as reduction in cell viability at […] incubated for 24 hrs by MTT assay; assay type: cell-based; settings: human
[9] = Selectivity index, ratio of compound effect for agonist activity at human LXRalpha to compound effect for agonist activity at […]
[10] = test system: RAW264.7; experiment: Inhibition of macrophage foam cell formation in mouse RAW264.7 cells assessed as reduction in ox-LDL induced total cholesterol level at 10 uM measured after 48 hrs; assay type: functional, cell-based
[11] = test system: PBMC; experiment: Anti-atherosclerotic activity in C57BL/6 mouse PBMC assessed as inhibition of ox-LDL induced lipid accumulation at 10 uM incubated for 48 hrs by ORO staining based microscopic analysis; assay type: functional, cell-based
[12] = test system: RAW264.7; experiment: Anti-atherosclerotic activity in mouse RAW264.7 cells assessed as inhibition of ox-LDL induced lipid accumulation at 10 uM incubated for 48 hrs by ORO staining based microscopic analysis; assay type: functional, cell-based
[13] = test system: RAW264.7; experiment: Agonist activity at LXR in mouse RAW264.7 cells assessed as increase in ABCA1 mRNA expression at 10 uM incubated for 48 hrs by qPCR analysis; assay type: cell-based
[14] = organism: Mus musculus; experiment: Agonist activity at LXR in C57BL/6 mouse PBMC assessed as increase in ABCA1 mRNA expression at 10 uM incubated for 48 hrs by qPCR analysis
[15] = Agonist activity at LXR in C57BL/6 mouse PBMC assessed as increase in sREBP-1c mRNA expression at 10 uM incubated for 48 hrs by qPCR analysis
[16] = Agonist activity at LXR in mouse RAW264.7 cells assessed as increase in sREBP-1c mRNA expression at 10 uM incubated for 48 hrs by qPCR analysis; assay type: cell-based; settings: raw264.7, 48 h
[17] = test system: PBMC; experiment: Effect on LXR mRNA expression in C57BL/6 mouse PBMC at 10 uM incubated for 48 hrs by qPCR analysis; assay type: cell-based
[18] = test system: HepG2; experiment: Lipid lowering activity in human HepG2 cells assessed as decrease in OA-induced TG accumulation at 10 uM incubated for 24 hrs; assay type: functional, cell-based
[19] = test system: HepG2; experiment: Effect on TG accumulation in human HepG2 cells at 10 uM incubated for 24 hrs; assay type: ADME, cell-based; settings: hepg2, 24 h
[20] = target: Liver X receptor (Homo sapiens) (UniProt Q13133+P55055); experiment: Agonist activity at LXR in human HepG2 cells assessed as increase in ABCA1 mRNA expression at 10 uM incubated for 24 hrs by qPCR analysis; assay type: cell-based
Chain of Liver X receptor (Homo sapiens) (P55055 whole entry, looked up, one chain of several): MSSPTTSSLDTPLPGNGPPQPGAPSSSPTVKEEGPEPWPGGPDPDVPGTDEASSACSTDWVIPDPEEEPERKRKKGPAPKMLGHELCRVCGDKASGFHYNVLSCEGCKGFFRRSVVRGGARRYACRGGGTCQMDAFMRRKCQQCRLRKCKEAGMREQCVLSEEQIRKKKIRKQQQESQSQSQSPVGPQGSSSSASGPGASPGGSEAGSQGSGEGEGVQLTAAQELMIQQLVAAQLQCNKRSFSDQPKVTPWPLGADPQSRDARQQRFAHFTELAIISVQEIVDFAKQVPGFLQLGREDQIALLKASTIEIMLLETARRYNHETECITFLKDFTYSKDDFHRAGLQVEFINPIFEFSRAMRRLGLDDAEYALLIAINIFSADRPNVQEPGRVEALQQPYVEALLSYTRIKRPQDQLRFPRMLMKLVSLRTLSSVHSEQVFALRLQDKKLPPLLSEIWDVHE

[21] = test system: HepG2; experiment: Cytotoxicity against human HepG2 cells assessed as reduction in cell viability at 2 to 50 uM incubated for 24 hrs by MTT assay; assay type: cell-based; settings: hepg2, 24 h
[22] = test system: 3T3-L1; experiment: Anti-adipogenic activity in mouse 3T3L1 preadipocytes assessed as decrease in triglyceride accumulation; assay type: functional, cell-based
[23] = test system: 3T3-L1; experiment: Anti-adipogenic activity in mouse 3T3L1 preadipocytes assessed as decrease in lipid accumulation by Oil Red O staining-based microscopic analysis; assay type: functional, cell-based
[24] = Agonist activity at LXR in mouse 3T3L1 preadipocytes assessed as increase in ABCA1 mRNA expression at 10 uM by qPCR analysis; assay type: cell-based
[25] = test system: 3T3-L1; experiment: Cytotoxicity against mouse 3T3L1 preadipocytes assessed as reduction in cell viability at 2 to 50 uM incubated for 24 hrs by MTT assay; assay type: cell-based; settings: 3t3-l1, 24 h
[26] = test system: Mus musculus; experiment: Anti-atherosclerotic activity in high fat diet-induced C57BL/6 mouse model of hypercholesterolemia assessed as reduction in serum total cholesterol level at 10 to 40 mg/kg, po administered for 12 weeks; assay type: functional, organism-based
[27] = test system: Mus musculus; experiment: Anti-atherosclerotic activity in high fat diet-induced C57BL/6 mouse model of hypercholesterolemia assessed as reduction in ALT level at 10 to 40 mg/kg, po administered for 12 weeks; assay type: functional, organism-based
[28] = test system: Mus musculus; experiment: Anti-atherosclerotic activity in high fat diet-induced C57BL/6 mouse model of hypercholesterolemia assessed as reduction in hepatic total cholesterol level at 10 to 40 mg/kg, po administered for 12 weeks; assay type: functional, organism-based
[29] = test system: Mus musculus; experiment: Anti-atherosclerotic activity in high fat diet-induced C57BL/6 mouse model of hypercholesterolemia assessed as reduction in hepatic triglyceride level at 10 to 40 mg/kg, po administered for 12 weeks; assay type: functional, organism-based
[30] = test system: Mus musculus; experiment: Anti-atherosclerotic activity in high fat diet-induced C57BL/6 mouse model of hypercholesterolemia assessed as reduction in liver weight at 10 to 40 mg/kg, po administered for 12 weeks by H and E staining-based assay; assay type: functional, organism-based
[31] = test system: Mus musculus; experiment: Anti-atherosclerotic activity in high fat diet-induced C57BL/6 mouse model of hypercholesterolemia assessed as reduction in liver fat administered orally for 12 weeks by ORO staining based microscopic analysis; assay type: functional, organism-based
[32] = test system: Mus musculus; experiment: Anti-atherosclerotic activity in high fat diet-induced C57BL/6 mouse model of hypercholesterolemia assessed as increase in CYP7A1 mRNA expression in liver at 10 to 40 mg/kg, po administered for 12 weeks by RT-qPCR analysis; assay type: functional, organism-based
[33] = test system: Mus musculus; experiment: Anti-atherosclerotic activity in high fat diet-induced C57BL/6 mouse model of hypercholesterolemia assessed as increase in ABCG5 mRNA expression in liver at 10 to 40 mg/kg, po administered for 12 weeks by RT-qPCR analysis; assay type: functional, organism-based
[34] = test system: Mus musculus; experiment: Anti-atherosclerotic activity in high fat diet-induced C57BL/6 mouse model of hypercholesterolemia assessed as decrease in sREBP-1c mRNA expression in liver at 10 to 40 mg/kg, po administered for 12 weeks by RT-qPCR analysis; assay type: functional, organism-based
[35] = test system: Mus musculus; experiment: Anti-atherosclerotic activity in high fat diet-induced C57BL/6 mouse model of hypercholesterolemia assessed as decrease in ACC mRNA expression in liver at 10 to 40 mg/kg, po administered for 12 weeks by RT-qPCR analysis; assay type: functional, organism-based
[36] = test system: Mus musculus; experiment: Anti-atherosclerotic activity in high fat diet-induced C57BL/6 mouse model of hypercholesterolemia assessed as decrease in SCD1 mRNA expression in liver at 10 to 40 mg/kg, po administered for 12 weeks by RT-qPCR analysis; assay type: functional, organism-based
[37] = test system: Mus musculus; experiment: Anti-atherosclerotic activity in high fat diet-induced C57BL/6 mouse model of hypercholesterolemia assessed as increase in ABCA1 mRNA expression in small intestine at 10 to 40 mg/kg, po administered for 12 weeks by RT-qPCR analysis; assay type: functional, organism-based
[38] = test system: Mus musculus; experiment: Anti-atherosclerotic activity in high fat diet-induced C57BL/6 mouse model of hypercholesterolemia assessed as increase in ABCG1 mRNA expression in small intestine at 10 to 40 mg/kg, po administered for 12 weeks by RT-qPCR analysis; assay type: functional, organism-based
[39] = test system: Mus musculus; experiment: Induction of hepatic steatosis in C57BL/6 mouse assessed as effect on serum LDL-C at 50 mg/kg/day, ig administered for 7 days; assay type: organism-based; settings: in vivo, po, 168 h
[40] = test system: RAW264.7; experiment: Effect on LXR mRNA expression in mouse RAW264.7 cells at 10 uM incubated for 48 hrs by qPCR analysis; assay type: cell-based; settings: raw264.7, 48 h
[41] = test system: RAW264.7; experiment: Cytotoxicity against mouse RAW264.7 cells assessed as reduction in cell viability at 2 to 50 µM incubated for 24 hrs by MTT assay; assay type: cell-based; settings: raw264.7, 24 h
[42] = test system: Mus musculus; experiment: Anti-atherosclerotic activity in high fat diet-induced C57BL/6 mouse model of hypercholesterolemia assessed as increase in ABCG8 mRNA expression in liver at 10 to 40 mg/kg, po administered for 12 weeks by RT-qPCR analysis; assay type: functional, organism-based
[43] = test system: Mus musculus; experiment: Anti-atherosclerotic activity in high fat diet-induced C57BL/6 mouse model of hypercholesterolemia assessed as increase in ABCG5 mRNA expression in ileum at 10 to 40 mg/kg, po administered for 12 weeks by RT-qPCR analysis; assay type: functional, organism-based
[44] = test system: Mus musculus; experiment: Anti-atherosclerotic activity in high fat diet-induced C57BL/6 mouse model of hypercholesterolemia assessed as increase in ABCG8 mRNA expression in ileum at 10 to 40 mg/kg, po administered for 12 weeks by RT-qPCR analysis; assay type: functional, organism-based

Compound: O=S(=O)(c1ccccc1)N(CC(F)(F)F)c1ccc(C(O)(C(F)(F)F)C(F)(F)F)cc1 [T091317]
Activity [1]: Toxic
Activity [2]: Toxic
Activity [3]: Toxic
Activity [4]: Toxic

fold induction at 20 h, 10 µM [5]: 4.27
fold change (FC) [6]: 4.27
Activity [7]: inactive
Activity [14]: Active
Activity [15]: Active
Activity [16]: Not Active
Activity [20]: Active
Activity [24]: Active
Compound: CC(C)C(=O)CC[C@@H](C)[C@H]1CC[C@H]2[C@@H]3C[C@H](O)[C@H]4C[C@H](O)CC[C@]4(C)[C@H]3CC[C@]12C
Activity [8]: Non-Toxic
Ratio [9]: 1
inhibition [10]: Active
inhibition [11]: Active
inhibition [12]: Active
Activity [13]: Active
Activity [17]: Non-Toxic
Activity [18]: Active
Activity [19]: Non-Toxic
Activity [21]: Non-Toxic
Activity [22]: inactive
Activity [23]: inactive
Activity [25]: Non-Toxic
Activity [26]: Active
Activity [27]: Active
Activity [28]: Active
Activity [29]: Active
Activity [30]: Active
Activity [31]: Dose-dependent effect
Activity [32]: Active
Activity [33]: Active
Activity [34]: Active
Activity [35]: Active
Activity [36]: Active
Activity [37]: Active
Activity [38]: Active
Activity [39]: Non-Toxic
Activity [1]: Non-Toxic
Activity [40]: Non-Toxic
Activity [41]: Non-Toxic
Activity [42]: Active
Activity [43]: Active
Activity [44]: Active
